The results in this text go back to ChEMBL document CHEMBL1130747, “Synthesis of novel cyclic protease inhibitors using Grubbs olefin metathesis” (Bioorg Med Chem Lett, 1998).

The target in this experiment is T1, Rhizopuspepsin (Rhizopus microsporus var. chinensis, UniProt P06026).
T1 sequence (P06026 whole entry): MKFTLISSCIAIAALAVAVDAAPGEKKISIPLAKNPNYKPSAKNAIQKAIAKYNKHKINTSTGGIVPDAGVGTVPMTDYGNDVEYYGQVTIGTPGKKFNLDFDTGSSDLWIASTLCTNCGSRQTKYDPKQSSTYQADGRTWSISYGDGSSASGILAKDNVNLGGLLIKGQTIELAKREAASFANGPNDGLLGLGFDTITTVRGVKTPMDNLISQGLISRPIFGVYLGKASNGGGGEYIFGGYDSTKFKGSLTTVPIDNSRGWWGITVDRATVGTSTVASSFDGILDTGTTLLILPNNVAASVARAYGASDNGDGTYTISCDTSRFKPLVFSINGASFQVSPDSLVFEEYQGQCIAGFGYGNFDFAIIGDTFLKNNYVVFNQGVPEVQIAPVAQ
Briefly: Inhibition of Rhizopus chinensis pepsin using fluorescence assay.

As a reminder, the Ki is a measure of affinity in units of concentration, obtained from inhibition or displacement. A high value points to lower affinity. For `CC(C)[C@H]1NC(=O)[C@H](NC(=O)OC(C)(C)C)CCC/C=C\CCC[C@H](CO)NC1=O`, the Ki worked out at 336 nM.
With `CC(C)[C@H]1NC(=O)[C@H](NC(=O)OC(C)(C)C)CCCCCCCC[C@H](CO)NC1=O`, affinity was put at a Ki of 1.31 nM.
